From PubChem BioAssay (NCI)
Values joined by “and” are separate entries in the source; they are usually repeats but may differ in a detail not shown here. Identical values can stand only once.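 Cells were grown in 96-well plates and exposed to each compound for 48 hours at five concentrations; endpoints were interpolated linearly between bracketing concentrations, or set to the highest concentration if not reached. The concentration for 50% growth inhibition is given as GI50. TGI marks complete inhibition of growth.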

How the values were obtained:
Test in all cases: NCI tumour cell line growth inhibition, 48 h
[1] = system: UACC-257 melanoma
[2] = system: SR leukemia
[3] = system: CAKI-1 renal
[4] = system: IGROV1 ovarian
[5] = system: SF-295 CNS
[6] = system: SK-MEL-5 melanoma
[7] = system: RXF 393 renal
[8] = system: SNB-75 CNS
[9] = system: RPMI-8226 leukemia
[10] = system: ACHN renal

SMILES | TGI [1] [µM] | TGI [2] [µM] | TGI [3] | TGI [4] | TGI [5] | TGI [6] | TGI [7] | TGI [8] [µM] | TGI [9] [µM] | TGI [10] | GI50 [1] | GI50 [2] | GI50 [3] | GI50 [4] | GI50 [5] | GI50 [6] | GI50 [7] | GI50 [8] [µM] | GI50 [9] | GI50 [10]
COc1cccc(/C=N/C(/N=C/c2cccc(OC)c2O)c2cccc(OC)c2O)c1O | 58.9 | 35.1 | 48.1 µM | 62.8 µM | 80 µM | 35.1 µM | 29.2 µM | 48.1 | > 100 | 58.6 µM |  |  |  |  |  |  |  |  |  | 
CC(C)=CC1=C2C3=C(C(=O)C4(O)Oc5c(C)c6c7c(c5OC24C)[C@@H](C)CC[C@@H]7[C@@H](C)C[C@H]6C=C(C)C)C(C)CCC3C(C)C1 (stereo not given in full) | > 100 | > 100 | > 100 µM | > 100 µM | > 100 µM | > 100 µM | > 100 µM | > 100 | > 100 | > 100 µM | > 100 µM | > 100 µM | > 100 µM | > 100 µM | > 100 µM | > 100 µM | > 100 µM | > 100 | > 100 µM | > 100 µM
CC(=O)O[C@H]1C(=O)[C@@]2(C)C(C(OC(=O)c3ccccc3)C3[C@@H](O)C(OC(=O)[C@@H](O)[C@H](NC(=O)c4ccccc4)c4ccc(C(F)(F)F)cc4)C(C)=C1C3(C)C)[C@]1(OC(C)=O)CO[C@@H]1C[C@@H]2O (stereo not given in full) | > 25 | > 25 | > 25 µM | > 25 µM | > 25 µM | > 25 µM | > 25 µM | > 25 | > 25 | > 25 µM |  |  |  |  |  |  |  |  |  | 
COc1ccc(C2ON(c3cccc(C)n3)CC=C2C)cc1 (stereo not given) | > 100 | 99.2 | > 100 µM | > 100 µM | > 100 µM | 33.3 µM | 96.5 µM | > 100 | > 100 | > 100 µM |  |  |  |  |  |  |  |  |  | 
O=C(O)C1CC(O)CN1 (stereo not given) | > 100 | > 100 | > 100 µM | > 100 µM | > 100 µM | > 100 µM | > 100 µM | > 100 | > 100 | > 100 µM |  |  |  |  |  |  |  |  |  | 
O=C(/C=C/c1ccc(C(F)(F)F)cc1)c1ccc(Nc2nc(NCCO)nc(Nc3ccc(Cl)cc3)n2)cc1 | 31.2 | 8.74 | 18.8 µM | 16.2 µM | 14.7 µM | 29.6 µM | 4.16 µM | 8.71 | 5.43 | 17 µM | 10.1 µM | 1.95 µM | 5.12 µM | 4.92 µM | 3.98 µM | 14 µM | 1.82 µM | 2.05 | 1.56 µM | 4.81 µM
Cc1cccc(C)c1NC(=O)C(=O)Nn1c(NN)nc2ccccc2c1=O | > 100 | > 100 | > 100 µM | > 100 µM | > 100 µM | > 100 µM | > 100 µM | > 100 | > 100 | > 100 µM |  |  |  |  |  |  |  |  |  | 
CC(C)CC(NC(=O)OC(C)(C)C)C(=O)Nc1ccc(Nc2nc(F)nc(-c3c4ccccc4cn3C)n2)cc1 (stereo not given) | > 100 | > 74.1 | > 100 µM | > 100 µM | > 100 µM | > 100 µM | > 87.1 µM | > 100 | 22.4 | > 100 µM |  |  |  |  |  |  |  |  |  | 
COc1cc(Nc2ncc(F)c(Nc3ccc4c(n3)N(COP(=O)(O)O)C(=O)C(C)(C)O4)n2)cc(OC)c1OC | > 90.7 | > 36.5 | 1.9 µM and > 10 µM | 2.22 µM and 2.11 µM | 7.55 µM and 8.7 µM | 33.3 µM and > 10 µM | 0.621 µM and 0.936 µM | 1.52 | > 31.3 | 12.2 µM and > 10 µM | 10.6 µM and 5.57 µM | 2.93 µM and 2.97 µM | 0.456 µM and 0.645 µM | 0.457 µM and 0.342 µM | 1.39 µM and 1.17 µM | 5.51 µM and 3.54 µM | 0.1 µM and 0.256 µM | 0.319 | 3.55 µM and 4.34 µM | 1.12 µM and 1.21 µM
CCNC(=O)O[C@H]1CN[C@H](C#Cc2cc3ncnc(Nc4ccc(OCc5cccc(F)c5)c(Cl)c4)c3s2)C1 | > 25 | > 25 | > 25 µM | > 25 µM | > 25 µM | > 25 µM | > 17.3 µM | > 25 | > 23.4 | > 25 µM | > 22.7 µM | 6.99 µM | 0.88 µM | 2.66 µM | 8.13 µM | 10.2 µM | 4.75 µM | 4.76 | 5.41 µM | 1.99 µM
CN(Cc1cc(C(C)(C)C)cc(Br)c1O)Cc1cc(C(C)(C)C)cc(Br)c1O | 5.85 | 12.2 | 11.4 µM | 13.5 µM | 14.3 µM | 7.76 µM | 7.98 µM | 13 | 6.79 | 9.01 µM |  |  |  |  |  |  |  |  |  | 
C=C1CC2(OC1=O)C(=O)Nc1ccccc12 (stereo not given) | 4.24 | 6.03 | 2.65 µM | 7.72 µM | > 100 µM | 18.8 µM | 2.9 µM | 28.1 | 5.94 | 2.29 µM | 1.74 µM | 1.32 µM | 1.29 µM | 2.36 µM | 28.9 µM | 6.13 µM | 1.45 µM | 11 | 1.8 µM | 1.09 µM
O=C1C(=Cc2c(O)cc(O)cc2O)C(=O)c2ccccc21 | > 58.1 | 50.7 | > 65.5 µM | > 59.8 µM | > 57 µM | > 100 µM | 27.9 µM | > 59.7 | > 71.9 | > 57.6 µM |  |  |  |  |  |  |  |  |  | 
COc1cc(-c2nc(SCCC(C)C)nc(Nc3ccc(S(N)(=O)=O)cc3)c2C#N)cc(OC)c1OC | > 100 | 6.86 | > 100 µM | > 100 µM | 7.35 µM | 3.01 µM | 3.97 µM | 54.2 | 6.79 | > 100 µM | 3.9 µM | 1.91 µM | 4 µM | 3.39 µM | 2.71 µM | 1.59 µM | 1.83 µM | 2.15 | 1.73 µM | 2.79 µM
Cc1cc2c([nH]c3ccccc32)c2c1OC(C)(C)C1C3CC(C)(C)Oc4c(C)cc5c6ccccc6n(c5c43)C21 (stereo not given) | > 100 | > 100 | > 100 µM | > 100 µM | > 100 µM | > 100 µM | > 100 µM | > 100 | > 100 | > 100 µM |  |  |  |  |  |  |  |  |  | 
Cc1ncc(C(=O)Nc2ccc(CN3CCN(C)CC3)c(C(F)(F)F)c2)cc1C#Cc1cnc(N)cc1C#N | 3.12 | 6.27 | 1.38 µM | 2.06 µM | 3.98 µM | 2.76 µM | 1.47 µM | 3.44 | 3.5 | 2 µM | 0.288 µM | 0.406 µM | 0.154 µM | 0.103 µM | 1.88 µM | 0.711 µM | 0.227 µM | 1.21 | 0.338 µM | 0.189 µM
